Reference: patent US20210130346A1, “Bromodomain Inhibitors” (AbbVie Inc., priority 2017, published 2021)

Assays:
BRD4 (BDI_K57-E168) = BRD4 (BDI_K57-E168) (Homo sapiens, UniProt O60885); assay: TR-FRET bromodomain binding assay, BRD4 first bromodomain (BDI); conditions: mean Ki; 12 nM His tagged BRD4 (BDI_K57-E168), 100 nM Alexa647 probe; Ki calculated from IC50, probe Kd and probe concentration
Experimental: A time-resolved fluorescence resonance energy transfer (TR-FRET) assay was used to determine the affinities of compounds of the Examples listed in Table 1 for each bromodomain of BRD4. […] An Alexa647-labeled BET-inhibitor was used as the fluorescent probe in the assay.
Compound dilution series were prepared in DMSO via an approximately 3-fold serial dilution. Compound dilutions were added directly into white, low-volume assay plates (Perkin Elmer Proxiplate 384 Plus# 6008280) using a Labcyte Echo in conjunction with Labcyte Access and Thermo Multidrop CombinL robotics. Compounds were then suspended in eight microliters (μL) of assay buffer (20 mM Sodium Phosphate, pH 6.0, 50 mM NaCl, 1 mM Ethylenediaminetetraacetic acid disodium salt dihydrate, 0.01% Triton X-100, 1 mM DL-Dithiothreitol) containing His-tagged bromodomain, Europium-conjugated anti-His antibody (Invitrogen PV5596) and Alexa-647-conjugated probe.
After a one-hour equilibration at room temperature, TR-FRET ratios were determined using an Envision multilabel plate reader (Ex 340, Em 495/520).
TR-FRET data were normalized to the means of 24 no-compound controls (“high”) and 8 controls containing 1 μM un-labeled probe (“low”). Percent inhibition was plotted as a function of compound concentration and the data were fit with the 4 parameter logistic equation to obtain IC50s. Inhibition constants (Ki) were calculated from the IC50s, probe Kd and probe concentration.

SKM-1 xenograft tumors = assay: Growth inhibition of SKM-1 xenograft tumors implanted in mice; type: in vivo, female SCID mice; conditions: SCID mice
Experimental: The effect of compounds of the examples to inhibit the growth of SKM-1 xenograft tumors implanted in mice was evaluated. A suspension of cancer cells (5×10^6 per 0.1 mL) prepared in RPMI culture medium (Invitrogen, Carlsbad, Calif.) was diluted 1:1 with a solution of Matrigel™ (BD Biosciences, Franklin Lakes, N.J.) and inoculated subcutaneously into the right hind flank of female SCID (Charles River Labs) mice. Randomization into treatment and vehicle control groups (8/group) occurred when the mean tumor volume reached approximately 250 mm^3. Example 3 was formulated in 10% ethanol, 30% PEG 400, 60% Phosol-50PG. Example 34 was formulated as a nanosuspension (2% low viscosity hydroxypropylcellulose polymer/0.2% sodium dodecyl sulfate in water). Administration of compound or vehicle was initiated on the day following randomization and continued for […]. Tumors were measured twice a week throughout the treatment period using a pair of calipers and tumor volumes were calculated according to the formula V=L×W^2/2 (V: volume, mm^3; L: length, mm. W: width, mm). Tumor growth inhibition was calculated based on the mean tumor volume measured on the first day that the mean volume of the vehicle group exceeded 2000 mm^3 according to the formula: % TGI=100−(100×(mean tumor volume of treatment group/mean tumor volume of control group))

| SMILES | Ki (BRD4 (BDI_K57-E168)) [µM] | further results |
| --- | --- | --- |
| CN1C(=O)[C@@]2(C[C@@]2(C)c2cn(C)c(=O)c3[nH]c(C(=O)NC4CC4)cc23)c2ccc(OC(F)(F)F)cc21 (racemic) [Example 58, rac-N-cyclopropyl-4-[(1R,2S)-1′,2-dimethyl-2′-oxo-6′-(trifluoromethoxy)-1′,2′-dihydrospiro[cyclopropane-1,3′-indol]-2-yl]-6-methyl-7-oxo-6,7-dihydro-1H-pyrrolo[2,3-c]pyridine-2-carboxamide] | > 13 |  |
| CN1C(=O)[C@]2(C[C@@H]2c2cn(C)c(=O)c3[nH]c(C(=O)O)cc23)c2ccccc21 (single isomer, unassigned) [Example 6] | > 13 |  |
| CN1C(=O)[C@]2(C[C@@H]2c2cn(C)c(=O)c3[nH]c(-c4cnn(C)c4)cc23)c2ccccc21 [Example 34, (1S,2R)-1′-methyl-2-[6-methyl-2-(1-methyl-1H-pyrazol-4-yl)-7-oxo-6,7-dihydro-1H-pyrrolo[2,3-c]pyridin-4-yl]spiro[cyclopropane-1,3′-indol]-2′(1H)-one] | 0.441 | % TGI (SKM-1 xenograft tumors; dose 38 mg/kg/d, formulated as a nanosuspension): 42%; % TGI (SKM-1 xenograft tumors; dose 75 mg/kg/d, formulated as a nanosuspension): 74% |
| CN1C(=O)[C@@]2(C[C@H]2c2cn(C)c(=O)c3[nH]c(-c4cnn(C)c4)cc23)c2ccccc21 [Example 35, (1R,2S)-1′-methyl-2-[6-methyl-2-(1-methyl-1H-pyrazol-4-yl)-7-oxo-6,7-dihydro-1H-pyrrolo[2,3-c]pyridin-4-yl]spiro[cyclopropane-1,3′-indol]-2′(1H)-one] | 1.3 |  |
| CN1C(=O)[C@]2(C[C@@H]2c2cn(C)c(=O)c3[nH]c(-c4cccnc4)cc23)c2ccccc21 [Example 48, (1S,2R)-1′-methyl-2-[6-methyl-7-oxo-2-(pyridin-3-yl)-6,7-dihydro-1H-pyrrolo[2,3-c]pyridin-4-yl]spiro[cyclopropane-1,3′-indol]-2′(1H)-one] | 1.42 |  |
| CN1C(=O)[C@@]2(C[C@H]2c2cn(C)c(=O)c3[nH]c(-c4cccnc4)cc23)c2ccccc21 [Example 49, (1R,2S)-1′-methyl-2-[6-methyl-7-oxo-2-(pyridin-3-yl)-6,7-dihydro-1H-pyrrolo[2,3-c]pyridin-4-yl]spiro[cyclopropane-1,3′-indol]-2′(1H)-one] | 4.14 |  |
| CN1C(=O)[C@]2(C[C@@H]2c2cn(C)c(=O)c3[nH]c(-c4ccnc(C(F)(F)F)c4)cc23)c2ccccc21 [Example 52, (1S,2R)-1′-methyl-2-{6-methyl-7-oxo-2-[2-(trifluoromethyl)pyridin-4-yl]-6,7-dihydro-1H-pyrrolo[2,3-c]pyridin-4-yl}spiro[cyclopropane-1,3′-indol]-2′(1H)-one] | > 13 |  |
| CN1C(=O)[C@@]2(C[C@H]2c2cn(C)c(=O)c3[nH]c(-c4ccnc(C(F)(F)F)c4)cc23)c2ccccc21 [Example 53, (1R,2S)-1′-methyl-2-{6-methyl-7-oxo-2-[2-(trifluoromethyl)pyridin-4-yl]-6,7-dihydro-1H-pyrrolo[2,3-c]pyridin-4-yl}spiro[cyclopropane-1,3′-indol]-2′(1H)-one] | 2.82 |  |

Second part, led by results:

| Ki (BRD4 (BDI_K57-E168)) [µM] | SMILES | further results |
| --- | --- | --- |
| > 13 | CN1C(=O)[C@@]2(C[C@H]2c2cn(C)c(=O)c3[nH]c(C(=O)O)cc23)c2ccccc21 (single isomer, unassigned) [Example 7] |  |
| > 13 | CN1C(=O)[C@@]2(C[C@H]2c2cn(C)c(=O)c3[nH]c(C(=O)NC4CC4)cc23)c2cc(F)ccc21 (single isomer, unassigned) [Example 18] |  |
| 7.34 | Cn1cc([C@H]2C[C@]23C(=O)Nc2ccccc23)c2cc(C(=O)NC3CC3)[nH]c2c1=O (single isomer, unassigned) [Example 20] |  |
| > 13 | Cn1cc([C@@H]2C[C@@]23C(=O)Nc2ccccc23)c2cc(C(=O)NC3CC3)[nH]c2c1=O (single isomer, unassigned) [Example 21] |  |
| 3.25 | CN1C(=O)[C@]2(C[C@@H]2c2cn(C)c(=O)c3[nH]c(C(=O)NC4CC4)cc23)c2ccccc21 [Example 3, N-cyclopropyl-6-methyl-4-[(1S,2R)-1′-methyl-2′-oxo-1′,2′-dihydrospiro[cyclopropane-1,3′-indol]-2-yl]-7-oxo-6,7-dihydro-1H-pyrrolo[2,3-c]pyridine-2-carboxamide] | % TGI (SKM-1 xenograft tumors; dose 5 mg/kg/d, formulated in 10% ethanol, 30% PEG 400, 60% Phosol-50PG): 27%; % TGI (SKM-1 xenograft tumors; dose 15 mg/kg/d, formulated in 10% ethanol, 30% PEG 400, 60% Phosol-50PG): 33%; % TGI (SKM-1 xenograft tumors; dose 45 mg/kg/d, formulated in 10% ethanol, 30% PEG 400, 60% Phosol-50PG): 43%; % TGI (SKM-1 xenograft tumors; dose 100 mg/kg/d, formulated in 10% ethanol, 30% PEG 400, 60% Phosol-50PG): 58%; % TGI (SKM-1 xenograft tumors; dose 150 mg/kg/d, formulated in 10% ethanol, 30% PEG 400, 60% Phosol-50PG): 52% |
| > 13 | CN1C(=O)[C@@]2(C[C@H]2c2cn(C)c(=O)c3[nH]c(C(=O)NC4CC4)cc23)c2ccccc21 [Example 4, N-cyclopropyl-6-methyl-4-[(1R,2S)-1′-methyl-2′-oxo-1′,2′-dihydrospiro[cyclopropane-1,3′-indol]-2-yl]-7-oxo-6,7-dihydro-1H-pyrrolo[2,3-c]pyridine-2-carboxamide] |  |
| 5.04 | CN1C(=O)[C@]2(C[C@@H]2c2cn(C)c(=O)c3[nH]c(C(=O)NC4CC4)cc23)c2cc(F)ccc21 [Example 17, N-cyclopropyl-4-[(1S,2R)-5′-fluoro-′-methyl-2′-oxo-1′,2′-dihydrospiro[cyclopropane-1,3′-indol]-2-yl]-6-methyl-7-oxo-6,7-dihydro-1H-pyrrolo[2,3-c]pyridine-2-carboxamide] |  |
| 4.21 | Cn1cc([C@H]2C[C@]23C(=O)N(CC(F)(F)F)c2ccccc23)c2cc(C(=O)NC3CC3)[nH]c2c1=O [Example 24, N-cyclopropyl-6-methyl-7-oxo-4-[(1S,2R)-2′-oxo-′-(2,2,2-trifluoroethyl)-1′,2′-dihydrospiro[cyclopropane-1,3′-indol]-2-yl]-6,7-dihydro-1H-pyrrolo[2,3-c]pyridine-2-carboxamide] |  |
| > 13 | Cn1cc([C@@H]2C[C@@]23C(=O)N(CC(F)(F)F)c2ccccc23)c2cc(C(=O)NC3CC3)[nH]c2c1=O [Example 25, N-cyclopropyl-6-methyl-7-oxo-4-[(1R,2S)-2′-oxo-′-(2,2,2-trifluoroethyl)-1′,2′-dihydrospiro[cyclopropane-1,3′-indol]-2-yl]-6,7-dihydro-1H-pyrrolo[2,3-c]pyridine-2-carboxamide] |  |
